Results published in patent publication US11292781B2, “Pyrimidine tricyclic enone derivatives for inhibition of ROR-gamma and other uses” (REATA PHARMACEUTICALS, INC., priority 2016, dated 2022).
Where two headings read alike, the source gives them in different places.

Assays:
[1] = test system: IL-17A levels in primary human CD4+ T cells differentiated into Th17 cells; test: IL-17 release from differentiated primary human T-cells (IL-17A HTRF); assay type: cell-based
Experimental: C. IL-17 Release from Differentiated Primary Human T-Cells and Cell Viability Primary human cryopreserved CD4+ T Cells (Lonza, donor #0000402103) were plated in Lymphocyte Growth Medium-3 (LGM-3, Lonza) according to the manufacturer's recommendations, and allowed to recover for approximately 3 hours at 37° C. with 5% CO2 in a humidified atmosphere. […] Triplicate wells were plated for each test condition. DMSO (final concentration ≤0.1%) was used as the vehicle. Immediately after plating, CD4+ T cells were activated by adding Dynabeads Human T-Activator CD3/CD28 (Life Technologies; bead-to-cell ratio of 1:2.5) and differentiated into Th17 cells by adding a mixture of the following cytokines: transforming growth factor-β (TGF-β, 5 ng/mL), IL-6 (20 ng/mL), IL-23 (20 ng/mL), and […] (10 ng/mL). Undifferentiated control cells received only cytokine IL-2 (50 ng/mL). All human recombinant cytokines were purchased from R&D Systems. Following a 46-hour incubation at 37° C. with 5% CO2 in a humidified atmosphere, the plates were centrifuged for 3 minutes at 250×g, and half of the supernatant was transferred to a new plate to be used in the IL-17A assay (see below). Cell viability was assessed in the original plate using the CyQuant Direct Assay (Life Technologies). CyQuant values from test compound samples were normalized to those from DMSO-treated samples. The concentration of IL-17A in the supernatant was measured using the Homogeneous Time-Resolved Fluorescence (HTRF) assay (Cisbio Bioassays) according to the manufacturer's protocol. The assay was performed at room temperature in low volume, solid white 384-well plates (Greiner Bio-One). […] A non-linear regression analysis with log (inhibitor) vs. normalized response using a variable slope was applied to fit the data and determine the IC50 values for inhibition of IL-17A levels and cell viability.

[2] = test system: Nrf2 transcription factor (GST ARE luciferase reporter in AREc32 cells); test: AREc32 luciferase reporter assay; assay type: cell-based, human; conditions: EC2×: concentration required to increase GST ARE luciferase reporter activity by 2-fold, 19 hours
Outline: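 AREc32 cells (MCF-7 carrying luciferase under eight rat GSTA2 ARE copies) treated with compound; luciferase measured by ONE-Glo luminescence. Signal normalised to DMSO wells as fold-induction, fitted by variable-slope log(agonist)-response regression, with EC2× interpolated from the curve.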

[3] = primary human CD4+ T cells, Th17 differentiation, 46-hour incubation, read-out: hIL17 IC50

| Structure (SMILES) | IC50 [1, 3] [nM] | HRF2 ARE 2× [2] [nM] | IC50 ([1]; Homo sapiens, CD4+ T, 46 h, read-out: hIL17 IC50 (nM)) [nM] |
| --- | --- | --- | --- |
| C[C@H]1C(=O)C(C#N)=C[C@@]2(C)c3nc(-c4ccnc5ccc(F)cc45)nc(-c4ccccc4F)c3CC[C@H]12 [T89] | 62 | 274 | – |
| C[C@H]1C(=O)C(C#N)=C[C@@]2(C)c3nc(-c4ccnnc4)nc(-c4ccccc4F)c3CC[C@H]12 [T79] | 143 | 109 | – |
| C[C@H]1C(=O)C(C#N)=C[C@@]2(C)c3nc(C4CCCCC4)nc(-c4ccccc4)c3CC[C@H]12 [T23] | 40 | 144 | – |
| CCS(=O)(=O)CCc1cc(-c2nc(-c3ccccc3F)c3c(n2)[C@]2(C)C=C(C#N)C(=O)[C@H](C)[C@H]2CC3)ccn1 [T153] | 52 | 282 | – |
| CC(=O)N1CCC=C(c2nc(-c3ccccc3)c3c(n2)[C@]2(C)C=C(C#N)C(=O)[C@H](C)[C@H]2CC3)C1 [T49] | 181 | 491 | – |
| C[C@H]1C(=O)C(C#N)=C[C@@]2(C)c3nc(-c4cc(CF)nc5ccccc45)nc(OC4CCCC4)c3CC[C@H]12 [T120] | 29 | 334 | – |
| CCC[C@H]1C(=O)C(C#N)=C[C@@]2(C)c3nc(-c4cccc5ncccc45)nc(-c4ccccc4F)c3CC[C@H]12 [T159] | 22 | 337 | – |
| CCC[C@@]1(C)C(=O)C(C#N)=C[C@@]2(C)c3nc(-c4ccnc5ccccc45)nc(-c4ccccc4F)c3CC[C@H]12 [T124] | 22 | 220 | – |
| CC(=O)Nc1cc(-c2nc(-c3ccccc3F)c3c(n2)[C@]2(C)C=C(C#N)C(=O)[C@H](C)[C@H]2CC3)ccn1 [T61] | 60 | 461 | – |
| Cc1cc(-c2nc(-c3ccccc3F)c3c(n2)[C@]2(C)C=C(C#N)C(=O)[C@H](C)[C@H]2CC3)ncn1 [T78] | 89 | 629 | – |
| C[C@H]1C(=O)C(C#N)=C[C@@]2(C)c3nc(-c4cnn5ccccc45)nc(-c4ccccc4F)c3CC[C@H]12 [T67] | 63 | 208 | – |
| CCS(=O)(=O)Cc1cc(-c2nc(-c3ccccc3F)c3c(n2)[C@]2(C)C=C(C#N)C(=O)[C@H](C)[C@H]2CC3)ccn1 [T154] | 65 | 469 | – |
| C[C@H]1C(=O)C(C#N)=C[C@@]2(C)c3nc(-c4ccnc5ccccc45)nc(-c4nccs4)c3CC[C@H]12 [T107] | 170 | 284 | – |
| C[C@H]1C(=O)C(C#N)=C[C@@]2(C)c3nc(-c4ccnc(C(F)(F)F)c4)nc(-c4ccccc4F)c3CC[C@H]12 [T54] | 31 | 483 | – |
| C[C@H]1C(=O)C(C#N)=C[C@@]2(C)c3nc(-c4ccnc5c4CCC5)nc(-c4ccccc4F)c3CC[C@H]12 [T80] | 58 | 312 | – |
| C[C@H]1C(=O)C(C#N)=C[C@@]2(C)c3nc(-c4ccnc5ccccc45)nc(OCC4CCC4)c3CC[C@H]12 [T95] | – | 430 | 68 |
| C[C@H]1C(=O)C(C#N)=C[C@@]2(C)c3nc(-c4ccnc(CCS(C)(=O)=O)c4)nc(-c4ccccc4F)c3CC[C@H]12 [T144] | 72 | 299 | – |
| C[C@H]1C(=O)C(C#N)=C[C@@]2(C)c3nc(-c4cc(C=O)nc5ccccc45)nc(-c4ccccc4F)c3CC[C@H]12 [T116] | 65 | 303 | – |
| C[C@H]1C(=O)C(C#N)=C[C@@]2(C)c3nc(-c4ccnc5ccccc45)nc(N(C)C)c3CC[C@H]12 [T99] | 189 | 508 | – |
| C[C@H]1C(=O)C(C#N)=C[C@@]2(C)c3nc(-c4ccc(CCS(C)(=O)=O)nc4)nc(-c4ccccc4F)c3CC[C@H]12 [T142] | 77 | 217 | – |
| C[C@]1(CC2CC2)C(=O)C(C#N)=C[C@@]2(C)c3nc(-c4ccnc5ccccc45)nc(-c4ccccc4F)c3CC[C@H]12 [T157] | 23 | 304 | – |
| C[C@H]1C(=O)C(C#N)=C[C@@]2(C)c3nc(-c4ccnc5ccccc45)nc(-c4ccccc4)c3CC[C@H]12 [T32] | 68 | 272 | – |
| CCC[C@@]12C=C(C#N)C(=O)C[C@H]1CCc1c(-c3ccccc3F)nc(-c3ccnc(CF)c3)nc12 [T155] | 71 | 267 | – |

| Structure (SMILES) | IC50 [1, 3] [nM] | HRF2 ARE 2× [2] [nM] | IC50 ([1]; Homo sapiens, CD4+ T, 46 h, read-out: hIL17 IC50 (nM)) [nM] |
| --- | --- | --- | --- |
| COc1nc(-c2ccnc3ccccc23)nc2c1CC[C@@H]1[C@@H](C)C(=O)C(C#N)=C[C@@]21C [T9] | 67 | 510 | – |
| C[C@H]1C(=O)C(C#N)=C[C@@]2(C)c3nc(-c4ccnc5ccccc45)nc(C4CC4)c3CC[C@H]12 [T93] | 101 | 283 | – |
| CCC[C@@]12C=C(C#N)C(=O)C[C@H]1CCc1c(-c3ccccc3F)nc(-c3ccnc(C4CC4)c3)nc12 [T167] | 106 | 493 | – |
| C[C@H]1C(=O)[C@@]2(C#N)O[C@H]2[C@@]2(C)c3nc(-c4ccnc5ccccc45)nc(-c4ccccc4F)c3CC[C@H]12 [T132] | 74 | 437 | – |
| C[C@H]1C(=O)C(C#N)=C[C@@]2(C)c3nc(-c4ccnc(C5CC5)c4)nc(-c4ccccc4F)c3CC[C@H]12 [T53] | 33 | 380 | – |
| C[C@H]1C(=O)C(C#N)=C[C@@]2(C)c3nc(-c4ncnc5ccccc45)nc(-c4ccccc4F)c3CC[C@H]12 [T74] | 49 | 507 | – |
| C[C@@H]1C(=O)C(C#N)=C[C@@]2(C)c3nc(-c4ccnc5ccccc45)nc(-c4ccccc4F)c3CC[C@@H]12 [T175] | 329 | >2000 | – |
| C[C@H]1C(=O)C(C#N)=C[C@@]2(C)c3nc(-c4ccnc5ccccc45)nc(-c4ccc(F)cc4F)c3CC[C@H]12 [T52] | 35 | 272 | – |
| C[C@H]1C(=O)C(C#N)=C[C@@]2(C)c3nc(-c4cc(CF)nc5ccccc45)nc(-c4ccccc4F)c3CC[C@H]12 [T115] | 14 | 260 | – |
| Cc1cnccc1-c1nc(-c2ccccc2F)c2c(n1)[C@]1(C)CC(C#N)=C(O)[C@H](C)[C@H]1CC2 [T55] | 590 | >2000 | – |
| C[C@H]1C(=O)C(C#N)=C[C@@]2(C)c3nc(-c4ccnc5c(F)cc(F)cc45)nc(-c4ccccc4F)c3CC[C@H]12 [T90] | 37 | 301 | – |
| C[C@H]1C(=O)C(C#N)=C[C@@]2(C)c3nc(-c4ccnc5ccccc45)nc(-c4cccc(F)c4)c3CC[C@H]12 [T39] | 63 | 427 | – |
| C[C@H]1C(=O)C(C#N)=C[C@@]2(C)c3nc(-c4cccc5cccnc45)nc(-c4ccccc4F)c3CC[C@H]12 [T62] | 39 | 401 | – |
| CC1(C)C(=O)C(C#N)=C[C@@]2(C)c3nc(-c4cc(CF)nc5ccccc45)nc(-c4ccccc4F)c3CC[C@H]12 [T122] | 31 | 402 | – |
| C[C@H]1C(=O)C(C#N)=C[C@@]2(C)c3nc(C4=CCCN(C(=O)OC(C)(C)C)C4)nc(-c4ccccc4)c3CC[C@H]12 [T47] | 38 | 622 | – |
| C[C@H]1C(=O)C(C#N)=C[C@@]2(C)c3nc(-c4ccc(-c5ccccc5)nc4)nc(-c4ccccc4F)c3CC[C@H]12 [T141] | 22 | 557 | – |
| C[C@H]1C(=O)C(C#N)=C[C@@]2(C)c3nc(-c4ccnc5ccccc45)nc(N4CCCC4)c3CC[C@H]12 [T138] | 167 | 641 | – |
| C[C@H]1C(=O)C(C#N)=C[C@@]2(C)c3nc(-c4cccc5cnccc45)nc(-c4ccccc4F)c3CC[C@H]12 [T86] | 33 | 276 | – |
| C[C@H]1C(=O)C(C#N)=C[C@@]2(C)c3nc(-c4cnc5ccccc5c4)nc(-c4ccccc4F)c3CC[C@H]12 [T59] | 34 | 311 | – |
| CC(C)Oc1nc(-c2ccnc3ccccc23)nc2c1CC[C@@H]1[C@@H](C)C(=O)C(C#N)=C[C@@]21C [T41] | 64 | 528 | – |
| Cc1cc(-c2nc(-c3ccccc3F)c3c(n2)[C@]2(C)C=C(C#N)C(=O)[C@H](C)[C@H]2CC3)c2ccccc2n1 [T69] | 20 | 227 | – |
| CC(C)c1nc(-c2ccnc3ccccc23)nc2c1CC[C@@H]1[C@@H](C)C(=O)C(C#N)=C[C@@]21C [T42] | 165 | 513 | – |
| C=C(C)C[C@@]1(C)C(=O)C(C#N)=C[C@@]2(C)c3nc(-c4ccnc5ccccc45)nc(-c4ccccc4F)c3CC[C@H]12 [T166] | 31 | 878 | – |
